# Where a name gives a salt, the structure may show the parent alone.
# Tests used:
# [1] = biological target: T1, Protease XXVII: "Nagarse" (Enzyme D) (Bacillus amyloliquefaciens, UniProt P00782); experiment: Homogeneous aqueous enzymatic resolution (ester hydrolysis) with Enzyme D; format: biochemical; conditions: 150 mg enzyme D, 0.010 mol ester in 100 ml 0.2 M sodium phosphate buffer pH 7.8
# T1 sequence (P00782 108-382): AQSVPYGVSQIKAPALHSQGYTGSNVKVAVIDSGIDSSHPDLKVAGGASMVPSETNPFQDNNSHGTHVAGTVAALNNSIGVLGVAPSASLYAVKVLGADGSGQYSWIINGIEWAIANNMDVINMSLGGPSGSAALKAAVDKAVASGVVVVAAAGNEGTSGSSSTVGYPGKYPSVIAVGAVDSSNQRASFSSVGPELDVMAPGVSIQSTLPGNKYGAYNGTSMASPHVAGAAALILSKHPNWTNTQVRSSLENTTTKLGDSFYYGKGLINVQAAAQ
# Pig Liver Esterase (E) = experiment: Homogeneous aqueous enzymatic resolution (ester hydrolysis) with Enzyme E; format: biochemical; conditions: 30 mg Pig Liver Esterase (E), 0.010 mol ester in 100 ml 0.2 M sodium phosphate buffer pH 7.8
# [2] = system: Protease XXIII: from Aspergillus oryzae (Enzyme A); experiment: Homogeneous aqueous enzymatic resolution (ester hydrolysis) with Enzyme A; conditions: for % e.e.: acid product
# Protocol: 10.0 millimole (mmol) of ibuprofen substrate ester 1 (the methyl sulfonate derivative) was dissolved in 100 ml of 0.2 M phosphate buffer of the appropriate cation (sodium or potassium, to be the same as the substrate counterion) at pH 7.0. 100 mg of enzyme A, as the
# commercial preparation, was added directly to this solution, and the reaction mixture was capped and then shaken briefly until all the enzyme preparation had dispersed or dissolved. The reaction mixture was then allowed to stand at ambient temperature (20°-22° C.) for 20 hours. […] The combined organic layers were backwashed twice with one volume of water, once with one volume of saturated NaCl solution, and then dried over MgSO4.
# Evaporation of the ether under reduced pressure left the resolved ibuprofen acid product; no other purification was performed. The optical rotation was measured in EtOH at a concentration c=1.0 for the ibuprofen acid product.
# In this Example, 0.010 mol of ibuprofen ester 3 (the propyl sulfonate derivative) was dissolved in 100 ml 0.2 M sodium phosphate buffer at pH 7.8, and 150 mg of the commercial enzyme A preparation was added. The reaction was then handled as described for Examples 6.2.1.1-6.2.1.7.
# In this Example, 0.010 mol of ibuprofen ester 2 (the ethyl sulfonate ester in the form of its potassium salt) were dissolved in 125 ml of 0.2 M sodium phosphate buffer at pH 7.0, and 150 mg of enzyme A was added to the reaction mixture as the commercially supplied preparation. The reaction was allowed to proceed for 18 hours, and the resulting product mixture was then worked-up as described above for Examples 6.2.1.1-6.2.1.7.
# 150 mg of Protease XXIII (A), as the commercially available preparation, was added to the reaction mixture, the reaction vessel was capped, and the entire heterogeneous reaction mixture was shaken in a wrist-action shaker for 18 hours. […] This mixture was then extracted twice with 200 ml of diethyl ether. The combined organic layers were backwashed twice with one volume of water, once with one volume of saturated NaCl, and the organic phase was then dried over MgSO4. Evaporation of the ether under reduced pressure left the resolved naproxen acid. No further purification was performed. The optical rotation of the product was measured in CHCl3 at a concentration c=1.0.
# 0.010 mol of naproxen ester 8 (the potassium salt of the ethyl sulfonate ester) was dispersed in 125 ml of 0.2 M sodium phosphate buffer at pH 7.8. 150 mg of enzyme A, as the commercially available preparation, were added, and the reaction handled as described in Example 6.2.1.1.
# 0.010 mol of ibuprofen ester 6 (the compound) were dissolved in 100 ml of 0.2 M sodium phosphate buffer at pH 7.0. 100 mg of enzyme A was added as the commercially available preparation, and the reaction handled as described above in Examples 6.2.1.1-6.2.1.7.
# 2.0 gm (0.0058 mole) of naproxen ester 9 (the sulfomethyl compound) was dissolved in 400 ml of 50 mM sodium phosphate buffer at pH 7.5. To the reaction were added 100 mg of Protease XXIII (A) as the commercially available preparation. After the enzyme had dissolved, the reaction mixture was incubated at 25 degrees for 16 hours. The reaction mixture was then acidified to pH 1-2 by the careful dropwise addition of concentrated HCl, and then it was extracted with ether (3×150 ml). The aqueous layer was retained. The combined organic layers were backwashed with water (2×100 ml), and these aqueous washings were added to the previously retained aqueous layer of the reaction. The ether layer was then washed once with 100 ml of brine, and dried over MgSO4.
# [3] = biological target: T2, Protease VIII: "Subtilopeptidase A" (subtilisin Carlsberg) (Enzyme B) (Bacillus licheniformis, UniProt P00780); experiment: Homogeneous aqueous enzymatic resolution (ester hydrolysis) with Enzyme B; format: biochemical; conditions: for % e.e.: acid product
# T2 sequence (P00780 106-379): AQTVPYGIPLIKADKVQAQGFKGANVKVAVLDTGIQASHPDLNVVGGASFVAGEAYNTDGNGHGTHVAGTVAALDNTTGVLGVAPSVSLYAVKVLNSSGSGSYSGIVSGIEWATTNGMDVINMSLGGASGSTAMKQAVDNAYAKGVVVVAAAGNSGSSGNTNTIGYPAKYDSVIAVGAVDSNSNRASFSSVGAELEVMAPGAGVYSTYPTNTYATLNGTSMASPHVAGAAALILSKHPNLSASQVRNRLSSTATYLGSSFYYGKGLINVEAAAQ
# [4] = system: protease Prozyme 6 (Enzyme F); experiment: Homogeneous aqueous enzymatic resolution (ester hydrolysis) with Enzyme F; format: biochemical, Asperqillus oryzae; conditions: 100 mg Prozyme 6 (F), 10 mmol ester in 100 ml 0.2 M buffer pH 7.0, 25° C., 18 hours
# Protocol: (Prozyme 6) (F) added. The enzymatic reaction mixtures were capped and briefly shaken until all the substrate had dissolved, and the enzyme had completely dissolved or dispersed. […] Evaporation of the ether left a white solid. Rotations were measured at c=1 in CHCl3.
# The enzymatic reaction mixtures were capped and briefly shaken until all the substrate had dissolved, and the enzyme had completely dissolved or dispersed. […] Evaporation of the ether left a white solid. Rotations were measured at c=1 in CHCl3.
# The reaction was started by adding 100 mg of the protease (F) from the fungus Asperqillus oryzae (from Amano Enzyme Corporation, Prozyme 6, 60,000 units per mg of solid).
# After 20 hours at room temperature, the solution was acidified to pH 2 and extracted with 3 volumes of diethyl ether. The aqueous phase was saved for subsequent workup. The ether phase was washed with two volumes of distilled water and then one volume of saturated sodium chloride, and then it was dried over MgSO4 and subsequently evaporated to dryness. The resolved ibuprofen product recovered was 930 mg of white powder, indicating 45% conversion of racemic ester to acid. The optical rotation was -0.580° (measured at c=1 in ethanol), indicating the R isomer of ibuprofen.
# 35 mg of protease Enzyme F, as the commercial preparation Prozyme 6, were added to the aqueous solution. The reaction flask was capped, and briefly shaken until all the enzyme had dissolved or dispersed. […] The resulting mixture was diluted with one volume of water and was extracted with diethyl ether (2 times 200 ml). The ether layers were combined and backwashed with water (2 times 200 ml), saturated NaCl solution (200 ml), and then dried over MgSO4.
# In this control run, a 0.5 M ester solution of (1) was prepared in 325 ml of 0.1 M sodium phosphate buffer (pH 7.0). The reaction was started by adding 3 gm of the above enzyme (F). The pH was controlled at 7.0 with 8.22 M sodium hydroxide. After 6.49 hours at 30° C., 6.63 ml of hydroxide were added, indicating 37.7% conversion. […]
# [5] = biological target: T3, Protease XVI: from Bacillus subtilis (Enzyme C) (Bacillus subtilis, UniProt P04189); experiment: Homogeneous aqueous enzymatic resolution (ester hydrolysis) with Enzyme C; format: biochemical; conditions: acid product; 100 mg enzyme C, 10 mmol ester in 100 ml 0.2 M phosphate buffer pH 7.0, 20-22° C., 20 hours
# T3 sequence (P04189 107-381): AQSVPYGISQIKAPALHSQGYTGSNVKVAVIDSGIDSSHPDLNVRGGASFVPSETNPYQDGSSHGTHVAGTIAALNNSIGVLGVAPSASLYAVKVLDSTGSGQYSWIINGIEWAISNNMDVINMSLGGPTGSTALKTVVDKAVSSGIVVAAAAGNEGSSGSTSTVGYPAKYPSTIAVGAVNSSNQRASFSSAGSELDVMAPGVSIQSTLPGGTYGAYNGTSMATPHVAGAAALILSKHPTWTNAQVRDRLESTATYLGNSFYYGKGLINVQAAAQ
# [6] = cited from earlier work
# [7] = 100 mg enzyme A, 10 mmol ester in 100 ml 0.2 M phosphate buffer pH 7.0, 20-22° C., 20 hours
# [8] = 150 mg enzyme A, 0.010 mol ester in 100 ml 0.2 M sodium phosphate buffer pH 7.8
# [9] = 150 mg enzyme B, 0.010 mol ester in 100 ml 0.2 M sodium phosphate buffer pH 7.8
# [10] = 100 mg enzyme B, 10 mmol ester in 100 ml 0.2 M phosphate buffer pH 7.0, 20-22° C., 20 hours
# [11] = 100 mg Protease XXIII (A), pH 7.5, 25 degrees, 16 hours
# [12] = 100 mg enzyme A, 10.0 mmol ester in 100 ml 0.2 M buffer pH 7.0, 25° C., 18 hours
# [13] = 100 mg enzyme B, 10.0 mmol ester in 100 ml 0.2 M Na3 PO4 buffer pH 7.0, 25° C., 18 hours
smiles,measurement,setting,value
"CC(C)Cc1ccc(C(C)C(=O)OCCCS(=O)(=O)O)cc1 (centres unmarked) [Compound 3, Potassium Salt of 3-Sulfopropyl Ester of 2-(4-Isobutylphenyl)propanoic Acid]",% CONVERSION,[1],32.0%
same,% e.e.,[1]; acid product,91.0%
same,% CONVERSION,Pig Liver Esterase (E),12.1%
same,% e.e.,Pig Liver Esterase (E); acid product,88.0%
same,% CONVERSION,[2]; [7],50.0%
same,% CONVERSION,[2]; [8],47.1%
same,conversion of the racemic ester to acid,"[2]; 1.00 gm protease (A), about 1 M ester, 40 ml, pH 7.0, room temperature, 23.9 hours, by NaOH titration",29%
same,% e.e.,[2]; [7],84.2%
same,% e.e.,[2]; [8],97.7%
same,% CONVERSION,[3]; [9],36.4%
same,% e.e.,[3]; [9],98.6%
"CC(C)Cc1ccc(C(C)C(=O)OCCS(=O)(=O)O)cc1 (centres unmarked) [Compound 2, Sodium Salt of 2-Sulfoethyl Ester of 2-(4-Isobutylphenyl)propanoic Acid]",% CONVERSION,[2]; [7],22.3%
same,% e.e.,[2]; [7],93.3%
"COc1ccc2cc(C(C)C(=O)OCCC[N+](C)(C)C)ccc2c1 (centres unmarked) [Compound 12, Methyl Sulfate Salt of 3-(N,N,N-Trimethylammonium)propyl Ester of 2-(6-Methoxy-2-naphthyl)propanoic Acid]",% CONVERSION,[4],34.0%
"CC(C)Cc1ccc(C(C)C(=O)OCC[N+](C)(C)C)cc1 (centres unmarked) [Compound 10, Iodide Salt of 2-(N,N,N-Trimethylammonium)ethyl Ester of 2-(4-Isobutylphenyl)propanoic Acid]",% CONVERSION,[2]; [7],30.1%
same,% e.e.,[2]; [7],> 99%
"CC(C)Cc1ccc(C(C)C(=O)OCCCCS(=O)(=O)O)cc1 (centres unmarked) [Compound 4, Potassium Salt of 4-Sulfobutyl Ester of 2-(4-Isobutylphenyl)propanoic Acid]",% e.e.,[5],61.7%
same,% CONVERSION,[2]; [7],43.2%
same,% e.e.,[2]; [7],97.4%
same,% CONVERSION,[3]; [10],20.0%
same,% e.e.,[3]; [10],92.1%
"COc1ccc2cc(C(C)C(=O)OCS(=O)(=O)O)ccc2c1 (centres unmarked) [Compound 9, Sodium Salt of Sulfomethyl Ester of 2-(6-Methoxy-2-naphthyl)propanoic Acid]",conversion (enzymatic hydrolysis),"[2]; 100 mg Protease XXIII (A), 2.0 gm ester in 400 ml 50 mM sodium phosphate buffer pH 7.5, 25 degrees, 16 hours",18%
same,enantiomeric excess of R isomer (acid product),[2]; [11],61.2%
same,enantiomeric excess of S isomer (acid from remaining ester after hydrolysis at pH 12),[2]; [11],45.5%
O=C1CC[C@H](N2C(=O)c3ccccc3C2=O)C(=O)N1 [L-thalidomide],teratogenicity,[6]; in vivo,potent teratogen
"CC(C)Cc1ccc(C(C)C(=O)OCCOP(=O)(O)O)cc1 (centres unmarked) [Compound 5, Disodium Salt of the Phosphoric Acid Ester of the 2-Hydroxyethyl Ester of 2-(4-Isobutylphenyl)propanoic Acid]",% e.e.,[5],75.6%
"O=C1CCC(N2C(=O)c3ccccc3C2=O)C(=O)N1 [D-enantiomer of thalidomide, thalidomide]",sedative use,[6]; prescribed for the control of morning sickness during pregnancy,safe and effective sedative
"CC(C)Cc1ccc(C(C)C(=O)OCCCOS(=O)(=O)O)cc1 (centres unmarked) [Compound 6, Potassium Salt of the Sulfuric Acid Ester of 3-Hydroxypropyl Ester of 2-(4-Isobutylphenyl)propanoic Acid]",% CONVERSION,[2]; [7],24.3%
same,% e.e.,[2]; [7],96.5%
"CC(Cl)C(=O)OCCCS(=O)(=O)O (centres unmarked) [Compound 13, Potassium Salt of 3-Sulfopropyl Ester of 2-Chloropropanoic Acid]",conversion as measured by titrimetry (reaction stopped),"[3]; 20 mg subtilisin protease (B), 8.05 gm ester in 300 ml 0.1 M potassium phosphate buffer pH 7.0",25%
"COc1ccc2cc(C(C)C(=O)OCC[N+](C)(C)C)ccc2c1 (centres unmarked) [Compound 11, Methyl Sulfate Salt of 2-(N,N,N-Trimethylammonium)ethyl Ester of 2-(6-Methoxy-2-naphthyl)propanoic Acid]",% e.e.,[4]; acid product,34.0%
"CC(CSC(=O)c1ccccc1)C(=O)OCS(=O)(=O)O (racemic) [Compound 16, Potassium Salt of the Sulfomethyl Ester of (+)-S-3-Benzoylthio-2-methylpropanoic Acid]",% CONVERSION,[2]; [12],53%
same,% e.e.,[2]; [12],3%
same,% CONVERSION,[3]; [13],26%
same,% e.e.,[3]; [13],10%

# From patent US5057427A, “Method for resolution of stereoisomers” (Sepracor, Inc., priority 1988, dated 1991)
